The source of these data is patent publication US9617222B1, “Alkynyl indazole derivative and use thereof” (SENJU PHARMACEUTICAL CO., LTD., priority 2014, dated 2017).

In brackets after ≈: the same amount, converted by molar mass.

A short description of data set [1]: Solubility test in 0.1% phosphate buffer solution (pH 7.0). Format: physicochemical. Particulars: aqueous buffer, thermodynamic from solid; 0.1% phosphate buffer solution (pH 7.0), room temperature overnight. The method, then:
The mixture was subjected to ultrasonic irradiation for 30 seconds, and then shaken at room temperature overnight. The resulting suspension was left at rest at room temperature for 30 minutes, then filtered through a chromatography disc (0.20 μm) to prepare a sample solution. The sample solution and the standard solution were analyzed by LC-MS (product name: ACQUITY UPLC H-CLASS SYSTEM and Xevo TQ-S, produced by Nihon Waters K.K.), and a solubility was calculated from the obtained peak area value by an external standard method.

The test system of data set [2] is Human Retinal Microvascular Endothelial (hRMVE) Cells (hRMVEC). Description: Growth inhibition of hRMVE cells under VEGF stimulation (MTT assay). Particulars: recombinant human VEGF, 48 hours, read-out: Cell Growth Inhibition Activity. Format: cell-based. On the technique in general: Tetrazolium dyes change colour on reduction, which living cells bring about.

As for `CNC(=O)c1ccccc1Sc1ccc2c(C#Cc3cccc(NC(=O)NCCOCCOCCOCCOCCOC)c3)n[nH]c2c1` [Compound 5, 2-{[3-({3-[3-(2,5,8,11,14-pentaoxahexadecane-16-yl)ureido]phenyl}ethynyl)-1H-indazol-6-yl]thio}-N-methylbenzamide], in data set [1], the solubility is 0.99 µg/mL (≈ 1.46 µM).

As for `CNC(=O)c1ccccc1Sc1ccc2c(C#Cc3ccc(NC(=O)COCCOCCOCCOC)cn3)n[nH]c2c1` [Compound 41], the solubility in data set [1] is 0.52 µg/mL (≈ 0.861 µM).

On to `CNC(=O)c1ccccc1Sc1ccc2c(C#Cc3ccc(NC(=O)OCCOCCOCCOC)cc3)n[nH]c2c1` [Compound 16, 2-[2-(2-methoxyethoxy)ethoxy]ethyl {4-[(6-{[2-(methylcarbamoyl)phenyl]thio}-1H-indazol-3-yl)ethynyl]phenyl}carbamate], for which the IC50 in data set [2] is 1.2 nM. Besides, the solubility in data set [1] is 0.27 µg/mL (≈ 0.459 µM).

`CNC(=O)c1ccccc1Sc1ccc2c(C#Cc3cncc(NC(=O)NCCOCCOCCOC)c3)n[nH]c2c1` [Compound 30, 2-[(3-{[5-(3-{2-[2-(2-methoxyethoxy)ethoxy]ethyl}ureido)pyridine-3-yl]ethynyl}-1H-indazol-6-yl)thio]-N-methylbenzamide] had a solubility in data set [1] of 0.58 µg/mL (≈ 0.985 µM).

For `CNC(=O)c1ccccc1Sc1ccc2c(C#Cc3ccc(NCCOCCOCCOCCOCCOC)cc3)n[nH]c2c1` [Compound 29, 2-{[3-({4-[(2,5,8,11,14-pentaoxahexadecane-16-yl)amino]phenyl}ethynyl)-1H-indazol-6-yl]thio}-N-methylbenzamide], the solubility in data set [1] is 0.89 µg/mL (≈ 1.41 µM).

For `CNC(=O)c1ccccc1Sc1ccc2c(C#Cc3ccc(NC(=O)NCCOCCOCCOCCOCCOC)cn3)n[nH]c2c1` [Compound 37, 2-{[3-({5-[3-(2,5,8,11,14-pentaoxahexadecane-16-yl)ureido]pyridine-2-yl}ethynyl)-1H-indazol-6-yl]thio}-N-methylbenzamide], the solubility in data set [1] worked out at 29 µg/mL (≈ 42.8 µM).

`CNC(=O)c1ccccc1Sc1ccc2c(C#Cc3ccc(NCCOCCOCCOCCOC)cc3)n[nH]c2c1` [Compound 28, 2-{[3-({4-[(2,5,8,11-tetraoxatridecane-13-yl)amino]phenyl}ethynyl)-1H-indazol-6-yl]thio}-N-methylbenzamide]: the solubility in data set [1] is 0.17 µg/mL (≈ 0.289 µM). This solubility is about 170-fold lower than that of the compound before.

For the compound `CNC(=O)c1ccccc1Sc1ccc2c(C#Cc3ccc(NC(=O)NCCOCCOCCO)cc3)n[nH]c2c1` [Compound 42, 2-[(3-{[4-(3-{2-[2-(2-hydroxyethoxy)ethoxy]ethyl}ureido)phenyl]ethynyl}-1H-indazol-6-yl)thio]-N-methylbenzamide], in data set [2], the IC50 is 1.6 nM. The compound further had a solubility in data set [1] of 3.1 µg/mL (≈ 5.4 µM).

For `CNC(=O)c1ccccc1Sc1ccc2c(C#Cc3ccc(NC(=O)NCCOCCOCCOCCOCCOC)cc3)n[nH]c2c1` [Compound 10, 2-{[3-({4-[3-(2,5,8,11,14-pentaoxahexadecane-16-yl)ureido]phenyl}ethynyl)-1H-indazol-6-yl]thio}-N-methylbenzamide], the solubility in data set [1] stood at 2.5 µg/mL (≈ 3.7 µM).

In data set [1], `CNC(=O)c1ccccc1Sc1ccc2c(C#Cc3cccc(NC(=O)NCCOCCOCCOCCOC)c3)n[nH]c2c1` [Compound 4] came in with a solubility of 0.31 µg/mL (≈ 0.491 µM).

`CNC(=O)c1ccccc1Sc1ccc2c(C#Cc3ccc(NC(=O)COCCOCCOCCOC)nc3)n[nH]c2c1` [Compound 38, N-{5-[(6-{[2-(methylcarbamoyl)phenyl]thio}-1H-indazol-3-yl)ethynyl]pyridine-2-yl}-2,5,8,11-tetraoxatridecane-13-amide]: the IC50 in data set [2] was 3.5 nM.

Turning to `CNC(=O)c1ccccc1Sc1ccc2c(C#Cc3cccc(NC(=O)NCCOCCOCCOC)c3)n[nH]c2c1` [Compound 3, 2-[(3-{[3-(3-{2-[2-(2-methoxyethoxy)ethoxy]ethyl}ureido)phenyl]ethynyl}-1H-indazol-6-yl)thio]-N-methylbenzamide], the IC50 in data set [2] was found to be 11 nM.

In the case of `CNC(=O)c1ccccc1Sc1ccc2c(C#Cc3ccc(NC(=O)NCCOCCOCCNC(C)=O)cc3)n[nH]c2c1` [Compound 45, 2-[(3-{[4-(3-{2-[2-(2-acetamideethoxy)ethoxy]ethyl}ureido)phenyl]ethynyl}-1H-indazol-6-yl)thio]-N-methylbenzamide], the IC50 in data set [2] is 2.5 nM. The same compound came in with a solubility in data set [1] of 0.56 µg/mL (≈ 0.911 µM).

Take `CNC(=O)c1ccccc1Sc1ccc2c(C#Cc3ccc(NC(=O)NCCOCCOCCOCCOC)cc3)n[nH]c2c1` [Compound 9, 2-{[3-({4-[3-(2,5,8,11-tetraoxatridecane-13-yl)ureido]phenyl}ethynyl)-1H-indazol-6-yl]thio}-N-methylbenzamide]: the solubility in data set [1] was determined as 1.2 µg/mL (≈ 1.9 µM).

With `CNC(=O)c1ccccc1Sc1ccc2c(C#Cc3cccc(NC(=O)OCCOCCOCCOC)c3)n[nH]c2c1` [Compound 13, 2-[2-(2-methoxyethoxy)ethoxy]ethyl {3-[(6-{[2-(methylcarbamoyl)phenyl]thio}-1H-indazol-3-yl)ethynyl]phenyl}carbamate], the IC50 in data set [2] amounted to 9.3 nM.

As for `CNC(=O)c1ccccc1Sc1ccc2c(C#Cc3ccc(NC(=O)OCCOCCOCCOCCOCCOC)cc3)n[nH]c2c1` [Compound 18, 2,5,8,11,14-pentaoxahexadecane-16-yl {4-[(6-{[2-(methylcarbamoyl)phenyl]thio}-1H-indazol-3-yl)ethynyl]phenyl}carbamate], the solubility in data set [1] was 0.86 µg/mL (≈ 1.27 µM).

As to `CNC(=O)c1ccccc1Sc1ccc2c(C#Cc3cccc(NCCOCCOCCOC)c3)n[nH]c2c1` [Compound 25, 2-[(3-{[3-({2-[2-(2-methoxyethoxy)ethoxy]ethyl}amino)phenyl]ethynyl}-1H-indazol-6-yl)thio]-N-methylbenzamide], the IC50 in data set [2] is 10 nM.

Regarding `CNC(=O)c1ccccc1Sc1ccc2c(C#Cc3ccc(NC(=O)OCCOCCOCCOCCOC)cc3)n[nH]c2c1` [Compound 17, 2,5,8,11-tetraoxatridecane-13-yl {4-[(6-{[2-(methylcarbamoyl)phenyl]thio}-1H-indazol-3-yl)ethynyl]phenyl}carbamate], in data set [1], the solubility is 0.38 µg/mL (≈ 0.601 µM).

As for `CNC(=O)c1ccccc1Sc1ccc2c(C#Cc3ccc(NC(=O)NCCOCCOCCN)cc3)n[nH]c2c1` [Compound 43, 2-[(3-{[4-(3-{2-[2-(2-aminoethoxy)ethoxy]ethyl}ureido)phenyl]ethynyl}-1H-indazol-6-yl)thio]-N-methylbenzamide], in data set [2], the IC50 was 4 nM. Moreover, in data set [1], the solubility amounted to 32 µg/mL (≈ 55.9 µM).

Regarding `CNC(=O)c1ccccc1Sc1ccc2c(C#Cc3ccc(NC(=O)COCCOCCOCCOC)cc3)n[nH]c2c1` [Compound 20, N-{4-[(6-{[2-(methylcarbamoyl)phenyl]thio}-1H-indazol-3-yl)ethynyl]phenyl}-2,5,8,11-tetraoxatridecane-13-amide], the IC50 in data set [2] came to 1.7 nM.

Turning to `CNC(=O)c1ccccc1Sc1ccc2c(C#Cc3ccc(NC(=O)NCCOCCOCCN4CCOCC4)cc3)n[nH]c2c1` [Compound 46, N-methyl-2-[(3-{[4-(3-{2-[2-(2-morpholinoethoxy)ethoxy]ethyl}ureido)phenyl]ethynyl}-1H-indazol-6-yl)thio]benzamide], the IC50 in data set [2] was 3.2 nM. In data set [1], this compound came in with a solubility of 1.4 µg/mL (≈ 2.18 µM).

In the case of `CNC(=O)c1ccccc1Sc1ccc2c(C#Cc3ccc(NC(=O)NCCOCCOCCOCCOCCOC)nc3)n[nH]c2c1` [Compound 34, 2-{[3-({6-[3-(2,5,8,11,14-pentaoxahexadecane-16-yl)ureido]pyridine-3-yl}ethynyl)-1H-indazol-6-yl]thio}-N-methylbenzamide], the solubility in data set [1] is 2.6 µg/mL (≈ 3.84 µM).

Turning to `CNC(=O)c1ccccc1Sc1ccc2c(C#Cc3ccc(NC(=O)NCCOCCOCCN(C)C)cc3)n[nH]c2c1` [Compound 44, 2-{[3-({4-[3-(2-{2-[2-(dimethylamino)ethoxy]ethoxy}ethyl)ureido]phenyl}ethynyl)-1H-indazol-6-yl]thio}-N-methylbenzamide], in data set [2], the IC50 is 3 nM. Moreover, the solubility in data set [1] came out at 7.6 µg/mL (≈ 12.7 µM).

On to `CNC(=O)c1ccccc1Sc1ccc2c(C#Cc3ccc(NC(=O)NCCOCCOCCOC)nc3)n[nH]c2c1` [Compound 32, 2-[(3-{[6-(3-{2-[2-(2-methoxyethoxy)ethoxy]ethyl}ureido)pyridine-3-yl]ethynyl}-1H-indazol-6-yl)thio]-N-methylbenzamide], for which the IC50 in data set [2] was 3.8 nM.

`CNC(=O)c1ccccc1Sc1ccc2c(C#Cc3cncc(NC(=O)NCCOCCOCCOCCOCCOC)c3)n[nH]c2c1` [Compound 31, 2-{[3-({5-[3-(2,5,8,11,14-pentaoxahexadecane-16-yl)ureido]pyridine-3-yl}ethynyl)-1H-indazol-6-yl]thio}-N-methylbenzamide] displayed a solubility in data set [1] of 9.9 µg/mL (≈ 14.6 µM).

Compound `CNC(=O)c1ccccc1Sc1ccc2c(C#Cc3ccc(NC(=O)COCCOCCOCCOCCOCCOC)cc3)n[nH]c2c1` [Compound 22, N-{4-[(6-{[2-(methylcarbamoyl)phenyl]thio}-1H-indazol-3-yl)ethynyl]phenyl}-2,5,8,11,14,17-hexaoxanonadecane-19-amide] returned a solubility in data set [1] of 3.3 µg/mL (≈ 4.78 µM). This solubility lies about 3-fold lower than the previous one.

`CNC(=O)c1ccccc1Sc1ccc2c(C#Cc3ccc(NC(=O)NCCOCCOCCOCCOC)cn3)n[nH]c2c1` [Compound 36, 2-{[3-({5-[3-(2,5,8,11-tetraoxatridecane-13-yl)ureido]pyridine-2-yl}ethynyl)-1H-indazol-6-yl]thio}-N-methylbenzamide] gave a solubility in data set [1] of 16 µg/mL (≈ 25.3 µM).

`CNC(=O)c1ccccc1Sc1ccc2c(C#Cc3ccc(NC(=O)NCCOCCOCCOC)cn3)n[nH]c2c1` [Compound 35, 2-[(3-{[5-(3-{2-[2-(2-methoxyethoxy)ethoxy]ethyl}ureido)pyridine-2-yl]ethynyl}-1H-indazol-6-yl)thio]-N-methylbenzamide]: the IC50 in data set [2] came out at 3.2 nM. Also, in data set [1], the solubility was found to be 4.4 µg/mL (≈ 7.47 µM).

For orientation: solubility means the concentration that dissolves in the medium under given conditions. Read a low solubility as a poorly soluble substance.
